Measurements reported in patent US12187727B2, “Methods for antagonizing a melanocortin 4 receptor” (Pfizer Inc., priority 2020, dated 2025).
Where two headings read alike, the source gives them in different places.

Biological target: human Melanocortin-4 receptor (MC4R) (Homo sapiens (Human), UniProt P32245)
Assay: Functional in vitro MC4R antagonist potency assay (cAMP HTRF in CHO cells)
Assay type: cell-based
Summary of the method: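 CHO cells stably expressing human MC4R were preincubated 30 min at 37 °C with compound ([…], 0.1% DMSO), then stimulated 30 min with EC80 αMSH (200 nM). Intracellular cAMP quantified by HTRF competitive immunoassay and normalized to agonist-stimulated and vehicle-only wells.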

[1] = human MC4R in CHO cells, cAMP HTRF, 200 nM aMSH challenge, Kb from IC50 by Leff-Dougall equation, geometric mean, read-out: Kb (nM) Antagonist geometric
[2] = read-out: Kb (nM) Antagonist geometric mean

human Melanocortin-4 receptor (MC4R), sequence (P32245 whole entry): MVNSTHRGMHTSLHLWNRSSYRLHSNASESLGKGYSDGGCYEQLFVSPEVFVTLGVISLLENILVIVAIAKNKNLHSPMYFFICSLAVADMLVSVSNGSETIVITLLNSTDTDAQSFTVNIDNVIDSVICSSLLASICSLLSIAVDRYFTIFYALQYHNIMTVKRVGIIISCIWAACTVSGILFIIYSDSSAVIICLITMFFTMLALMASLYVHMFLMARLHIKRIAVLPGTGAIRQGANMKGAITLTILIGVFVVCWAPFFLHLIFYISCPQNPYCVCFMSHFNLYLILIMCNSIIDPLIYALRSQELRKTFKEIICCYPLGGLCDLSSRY

Compound | Kb [1] [nM] | Kb [2] [nM]
COc1cc([C@@H](C)C(=O)N2CC[C@@]3(CCc4cc(-c5nc(C(F)F)n(C)n5)c(C)nc4N3)C2)c(Cl)cn1 [Example 120, (2R)-2-(5-chloro-2-methoxypyridin-4-yl)-1-{(2S)-6-[5-(difluoromethyl)-1-methyl-1H-1,2,4-triazol-3-yl]-7-methyl-3,4-dihydro-1H-spiro[1,8-naphthyridine-2,3′-pyrrolidin]-1′-yl}propan-1-one] | 0.08 | 
COc1cc([C@@H](C)C(=O)N2CC[C@@]3(CCc4cc(-c5cccc(C(F)F)n5)c(C)nc4N3)C2)c(F)cn1 [Example 181, (2R)-1-{(2S)-6-[6-(difluoromethyl)pyridin-2-yl)-7-methyl-3,4-dihydro-1H-spiro[1,8-naphthyridine-2,3′-pyrrolidin]-1′-yl}-2-(5-fluoro-2-methoxypyridin-4-yl)propan-1-one] | 14 | 
COc1cc([C@@H](C)C(=O)N2CC[C@@]3(CCc4cc(-c5nc6n(n5)CCC6(F)F)c(C)nc4N3)C2)c(F)cn1 [Example 147, (2R)-1-[(2S)-6-(7,7-difluoro-6,7-dihydro-5H-pyrrolo[12-b][1,2,4]triazol-2-yl)-7-methyl-3,4-dihydro-1H-spiro[1,8-naphthyridine-2,3′-pyrrolidin]-1′-yl]-2-(5-fluoro-2-methoxypyridin-4-yl)propan-1-one] | 0.57 | 
COc1cc([C@@H](C)C(=O)N2CC[C@@]3(CCc4cc(-c5cnn6cccnc56)c(C)nc4N3)C2)c(F)cn1 [Example 154, (2R)-2-(5-fluoro-2-methoxypyridin-4-yl)-1-[(2S)-7-methyl-6-(pyrazolo[1,5-a]pyrimidin-3-yl)-3,4-dihydro-1H-spiro[1,8-naphthyridine-2,3′-pyrrolidin]-1′-yl]propan-1-one] | 9.5 | 
COc1cc([C@@H](C)C(=O)N2CC[C@@]3(CCc4cc(-c5ccc(C6CC6)nn5)c(C)nc4N3)C2)c(F)cn1 [Example 199, (2R)-1-[(2S)-6-(6-cyclopropylpyridazin-3-yl)-7-methyl-3,4-dihydro-1H-spiro[1,8-naphthyridine-2,3′-pyrrolidin]-1′-yl]-2-(5-fluoro-2-methoxypyridin-4-yl)propan-1-one] | > 54 | 
COc1cc([C@@H](C)C(=O)N2CC[C@@]3(CCc4cc(-c5ccc(F)cn5)c(C)nc4N3)C2)c(F)cn1 [Example 139, (2R)-2-(5-fluoro-2-methoxypyridin-4-yl)-1-[(2S)-6-(5-fluoropyridin-2-yl)-7-methyl-3,4-dihydro-1H-spiro[1,8-naphthyridine-2,3′-pyrrolidin]-1′-yl]propan-1-one] | 21 | 
COc1cc([C@@H](C)C(=O)N2CCC3(CCc4cc(-c5nc(OC)n(C)n5)c(C)nc4N3)C2)c(F)cn1 (single isomer, unassigned) [Example 112] | 2 | 

Continued, values first:

Kb [1] [nM] | Kb [2] [nM] | Compound
5.9 |  | Cc1nc2c(cc1-c1ncccn1)CC[C@@]1(CCN(C(=O)[C@H](C)c3ccc(F)cc3F)C1)N2 (single isomer, unassigned) [Example 190]
 | 10 | Cc1nc2c(cc1-c1nnn(C)n1)CC[C@@]1(CCN(C(=O)Cc3ccc(C(F)(F)F)cc3)C1)N2 (single isomer, unassigned) [Example 65, 1-[7-methyl-6-(2-methyl-2H-tetrazol-5-yl)-3,4-dihydro-1H-spiro[1,8-naphthyridine-2,3′-pyrrolidin]-1′-yl]-2-[4-(trifluoromethyl)phenyl]ethan-1-one]
 | 17 | Cc1nc2c(cc1-c1ncccn1)CC[C@@]1(CCN(C(=O)Cc3ccc(C(F)(F)F)cc3)C1)N2 [Example 73, 1-[(2S)-7-methyl-6-(pyrimidin-2-yl)-3,4-dihydro-1H-spiro[1,8-naphthyridine-2,3′-pyrrolidin]-1yl]-2-[4-(trifluoromethyl)phenyl]ethan-1-one]
 | 9.4 | COc1ccc([C@@H](C)C(=O)N2CC[C@@]3(CCc4cc(-c5ncccn5)c(C)nc4N3)C2)cc1F (single isomer, unassigned) [Example 42]
